Data: US11014911B2, “CDK2 inhibitors” (Pfizer Inc., priority 2019, dated 2021)

How the values were obtained:
GSK3β (H350L) = GSK3β (H350L) (Homo sapiens (Human), UniProt P49841); conditions: read-out: GSK3β Ki
Method: The assay was initiated with the addition of ATP, following 15 minutes pre-incubation of enzyme and inhibitor at room temperature in the reaction mixture. The reaction was stopped after 30 minutes at room temperature by the addition of 50 μL of 80 mM EDTA.

[1] = target: CDK2/Cyclin E1 full length (Homo sapiens (Human), UniProt P24941); test: CDK2/Cyclin E1 full length mobility shift assay; format: biochemical

Chain of GSK3β (H350L) (P49841 whole entry, stated change not applied): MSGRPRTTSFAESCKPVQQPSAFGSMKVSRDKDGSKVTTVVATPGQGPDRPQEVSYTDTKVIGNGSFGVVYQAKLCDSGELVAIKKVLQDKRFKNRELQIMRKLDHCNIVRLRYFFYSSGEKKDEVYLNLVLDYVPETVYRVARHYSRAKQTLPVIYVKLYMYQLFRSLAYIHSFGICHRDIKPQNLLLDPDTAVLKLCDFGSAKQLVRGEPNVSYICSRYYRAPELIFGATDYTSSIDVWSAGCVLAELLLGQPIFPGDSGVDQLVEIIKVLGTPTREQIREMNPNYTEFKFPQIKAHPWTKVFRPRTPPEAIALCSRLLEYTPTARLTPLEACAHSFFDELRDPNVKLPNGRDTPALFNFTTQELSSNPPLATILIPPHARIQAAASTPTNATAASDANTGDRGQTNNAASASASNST

Ki (GSK3β (H350L)) [nM]	Ki [1] [nM]	SMILES
5.18	1.03	COc1ncc(CC(=O)Nc2cc([C@H]3CC[C@@H](OC(=O)N4CCOC[C@@H]4C)C3)[nH]n2)s1 [Example 646, (1R,3S)-3-(3-{[(2-methoxy-1,3-thiazol-5-yl)acetyl]amino}-1H-pyrazol-5-yl)cyclopentyl (3S)-3-methylmorpholine-4-carboxylate]
38.8	0.15	CC(C)(C)NC(=O)O[C@@H]1CC[C@H](c2cc(NC(=O)Cc3ccno3)n[nH]2)C1 [Example 108]
5.35	0.75	CCN(C)C(=O)O[C@H]1CC[C@@H](c2cc(NC(=O)Cc3ccc(OC)nc3)n[nH]2)C1 [Example 243, (1S,3R)-3-(3-{[(6-methoxypyridin-3-yl)acetyl]amino}-1H-pyrazol-5-yl)cyclopentyl ethyl(methyl)carbamate]
> 47.6	1.37	COCc1cc(C(=O)Nc2cc([C@H]3CC[C@@H](OC(=O)NCCC(F)(F)F)C3)[nH]n2)n(C)n1 [Example 103]
3.7	0.57	CCN(C)C(=O)O[C@@H]1CC[C@H](c2cc(NC(=O)Cc3ccc(OC)nc3)n[nH]2)C1 [Example 244, (1R,3S)-3-(3-{[(6-methoxypyridin-3-yl)acetyl]amino}-1H-pyrazol-5-yl)cyclopentyl ethyl(methyl)carbamate]
> 191	3.91	CCCNC(=O)O[C@@H]1CC[C@H](c2cc(NC(=O)c3ccc(C)nc3C)n[nH]2)C1 [Example 181, (1R,3S)-3-(3-{[(2,6-dimethylpyridin-3-yl)carbonyl]amino}-1H-pyrazol-5-yl)cyclopentyl propylcarbamate]
5.75	0.08	C[C@H]1CCCN1C(=O)O[C@@H]1CC[C@H](c2cc(NC(=O)Cc3cnc4ncnn4c3)n[nH]2)C1 [Example 141]
> 191	0.7	CCCNC(=O)O[C@H]1CC[C@@H](c2cc(Nc3ccc4c(n3)CC[C@@H]4N(C)C)n[nH]2)C1 [Example 192, (1S,3R)-3-(3-{[(5S)-5-(dimethylamino)-6,7-dihydro-5H-cyclopenta[b]pyridin-2-yl]amino}-1H-pyrazol-5-yl)cyclopentyl propylcarbamate]
61.4	0.11	CC[C@H](C)NC(=O)O[C@@H]1CC[C@H](c2cc(NC(=O)Cc3ccc(C)cc3S(C)(=O)=O)n[nH]2)C1 [Example 45]
7.23	0.37	C[C@@H]1COCCN1C(=O)O[C@@H]1CC[C@H](c2cc(NC(=O)Cc3cc(F)cc(F)c3)n[nH]2)C1 [Example 645, (1R,3S)-3-(3-{[(3,5-difluorophenyl)acetyl]amino}-1H-pyrazol-5-yl)cyclopentyl (3R)-3-methylmorpholine-4-carboxylate]
4.07	1.24	COc1ccc(CC(=O)Nc2cc([C@@H]3CC[C@H](OC(=O)N[C@H]4CC[C@](C)(O)CC4)C3)[nH]n2)cc1 [Example 565, (1S,3R)-3-(3-{[(4-methoxyphenyl)acetyl]amino}-1H-pyrazol-5-yl)cyclopentyl (trans-4-hydroxy-4-methylcyclohexyl)carbamate]
14.3	0.62	COCCn1nccc1C(=O)Nc1cc([C@H]2CC[C@@H](OC(=O)N3CC[C@@H]3C)C2)[nH]n1 [Example 594, (1R,3S)-3-[3-({[1-(2-methoxyethyl)-1H-pyrazol-5-yl]carbonyl}amino)-1H-pyrazol-5-yl]cyclopentyl (2S)-2-methylazetidine-1-carboxylate]
51.5	0.88	C[C@H]1CCN1C(=O)O[C@@H]1CC[C@H](c2cc(NC(=O)c3cnnn3C)n[nH]2)C1 [Example 586, (1R,3S)-3-(3-{[(1-methyl-1H-1,2,3-triazol-5-yl)carbonyl]amino}-1H-pyrazol-5-yl)cyclopentyl (2S)-2-methylazetidine-1-carboxylate]
17.8	0.22	Cc1cnc(CC(=O)Nc2cc([C@H]3CC[C@@H](OC(=O)NC4(C)CCC4)C3)[nH]n2)o1 [Example 118]
54	0.2	CC[C@H](C)NC(=O)O[C@@H]1CC[C@H](c2cc(NC(=O)c3ccnn3CCOC)n[nH]2)C1 [Example 51]
23.4	0.19	CC[C@H](C)NC(=O)O[C@@H]1CC[C@H](c2cc(NC(=O)Cc3ccnc(OC)c3)n[nH]2)C1 [Example 37]
117	0.17	CC[C@H](C)NC(=O)O[C@@H]1CC[C@H](c2cc(NC(=O)Cc3cc(OC)ccc3S(C)(=O)=O)n[nH]2)C1 [Example 50]
10.4	0.1	CC(C)NC(=O)O[C@@H]1CC[C@H](c2cc(NC(=O)Cc3ccc4c(cnn4C)c3)n[nH]2)C1 [Example 55]
24.4	0.33	COc1ncc(CC(=O)Nc2cc([C@H]3CC[C@@H](OC(=O)NC(C)C)C3)[nH]n2)s1 [Example 281, (1R,3S)-3-(3-{[(2-methoxy-1,3-thiazol-5-yl)acetyl]amino}-1H-pyrazol-5-yl)cyclopentyl propan-2-ylcarbamate]
90.6	0.82	CCCNC(=O)O[C@H]1CC[C@@H](c2cc(NC(=O)c3ccc(OC)nc3)n[nH]2)C1 [Example 182, (1S,3R)-3-(3-{[(6-methoxypyridin-3-yl)carbonyl]amino}-1H-pyrazol-5-yl)cyclopentyl propylcarbamate]

SMILES	Ki (GSK3β (H350L)) [nM]	Ki [1] [nM]
Cn1cc(CC(=O)Nc2cc([C@H]3CC[C@@H](OC(=O)NC4(C)CCOCC4)C3)[nH]n2)cn1 [Example 506, (1R,3S)-3-(3-{[(1-methyl-1H-pyrazol-4-yl)acetyl]amino}-1H-pyrazol-5-yl)cyclopentyl (4-methyltetrahydro-2H-pyran-4-yl)carbamate]	77.6	0.76
CC[C@H](C)NC(=O)O[C@H]1CC[C@@H](c2cc(NC(=O)Cc3ccno3)n[nH]2)C1 [Example 30]	20.6	0.16
Cc1ccc(CC(=O)Nc2cc([C@@H]3CC[C@H](OC(=O)N[C@H]4CC[C@H](O)CC4)C3)[nH]n2)cn1 [Example 548, (1S,3R)-3-(3-{[(6-methylpyridin-3-yl)acetyl]amino}-1H-pyrazol-5-yl)cyclopentyl (trans-4-hydroxycyclohexyl)carbamate]	2.1	0.39
CC[C@H](C)NC(=O)O[C@@H]1CC[C@H](c2cc(NC(=O)Cc3cn4nc(C)sc4n3)n[nH]2)C1 [Example 359, (1R,3S)-3-(3-{[(2-methylimidazo[2,1-b][1,3,4]thiadiazol-6-yl)acetyl]amino}-1H-pyrazol-5-yl)cyclopentyl (2S)-butan-2-ylcarbamate]	28.5	0.39
Cc1cnc(CC(=O)Nc2cc([C@H]3CC[C@@H](OC(=O)NC4(C)CC4)C3)[nH]n2)cn1 [Example 428, (1R,3S)-3-(3-{[(5-methylpyrazin-2-yl)acetyl]amino}-1H-pyrazol-5-yl)cyclopentyl (1-methylcyclopropyl)carbamate]	30.1	0.4
COc1ncc(CC(=O)Nc2cc([C@H]3CC[C@@H](OC(=O)NC4(C)CCOCC4)C3)[nH]n2)s1 [Example 509, (1R,3S)-3-(3-{[(2-methoxy-1,3-thiazol-5-yl)acetyl]amino}-1H-pyrazol-5-yl)cyclopentyl (4-methyltetrahydro-2H-pyran-4-yl)carbamate]	30.2	0.5
CC[C@H](C)NC(=O)O[C@@H]1CC[C@H](c2cc(NC(=O)c3ccc(C)nc3)n[nH]2)C1 [Example 324, (1R,3S)-3-(3-{[(6-methylpyridin-3-yl)carbonyl]amino}-1H-pyrazol-5-yl)cyclopentyl (2S)-butan-2-ylcarbamate]	94.3	0.54
CC[C@H](C)NC(=O)O[C@@H]1CC[C@H](c2cc(NC(=O)Cc3cccc4c3CN(C)C4=O)n[nH]2)C1 [Example 361, (1R,3S)-3-(3-{[(2-methyl-1-oxo-2,3-dihydro-1H-isoindol-4-yl)acetyl]amino}-1H-pyrazol-5-yl)cyclopentyl (2S)-butan-2-ylcarbamate]	25.6	0.94
Cc1ccc(CC(=O)Nc2cc([C@H]3CC[C@@H](OC(=O)NC4(C)CC4)C3)[nH]n2)nc1 [Example 424, (1R,3S)-3-(3-{[(5-methylpyridin-2-yl)acetyl]amino}-1H-pyrazol-5-yl)cyclopentyl (1-methylcyclopropyl)carbamate]	14.4	0.51
COc1cc(CC(=O)Nc2cc([C@@H]3CC[C@H](OC(=O)N[C@H]4CC[C@@H](O)CC4)C3)[nH]n2)ccn1 [Example 552, (1S,3R)-3-(3-{[(2-methoxypyridin-4-yl)acetyl]amino}-1H-pyrazol-5-yl)cyclopentyl (cis-4-hydroxycyclohexyl)carbamate]	2.41	0.29
Cc1cc(CC(=O)Nc2cc([C@@H]3CC[C@H](OC(=O)N[C@H]4CC[C@H](O)CC4)C3)[nH]n2)ccn1 [Example 547, (1S,3R)-3-(3-{[(2-methylpyridin-4-yl)acetyl]amino}-1H-pyrazol-5-yl)cyclopentyl (trans-4-hydroxycyclohexyl)carbamate]	3.62	0.61
CCCNC(=O)O[C@@H]1CC[C@H](c2cc(NC(=O)Cc3cc(OC)ncc3S(C)(=O)=O)n[nH]2)C1 [Example 214, (1R,3S)-3-[3-({[2-methoxy-5-(methylsulfonyl)pyridin-4-yl]acetyl}amino)-1H-pyrazol-5-yl]cyclopentyl propylcarbamate]	131	0.37
Cc1ccc(CC(=O)Nc2cc([C@@H]3CC[C@H](OC(=O)N[C@H]4CC[C@@H](O)CC4)C3)[nH]n2)nc1 [Example 546, (1S,3R)-3-(3-{[(5-methylpyridin-2-yl)acetyl]amino}-1H-pyrazol-5-yl)cyclopentyl (cis-4-hydroxycyclohexyl)carbamate]	3.51	1.85
CC[C@H](C)NC(=O)O[C@@H]1CC[C@H](c2cc(NC(=O)Cc3nc(C)cs3)n[nH]2)C1 [Example 343, (1R,3S)-3-(3-{[(4-methyl-1,3-thiazol-2-yl)acetyl]amino}-1H-pyrazol-5-yl)cyclopentyl (2S)-butan-2-ylcarbamate]	26.1	0.77
